# According to US9309263B2, “Fused multi-cyclic sulfone compounds as inhibitors of beta-secretase and methods of use thereof” (AMGEN INC., priority 2013, dated 2016):
# Legend:
# [1] = biological target: Cathepsin D (Cat D) (Homo sapiens, UniProt P07339); test: In vitro enzymatic Cathepsin D (Cat D) FRET assay; assay type: biochemical; settings: Cathepsin D FRET assay; read-out: CatD IC50
# Summary of the method: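 Recombinant CHO-expressed enzyme (9 nM) pre-incubated 1 h with serially diluted inhibitor in 0.05 M citrate pH 3.5, 10% DMSO final, 5 mM CHAPS. Reaction started with 20 nM FRET peptide substrate, run 1 h, stopped with Tris to neutral pH; fluorescence read at ex 500/em 580 nm.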
# [2] = biological target: Beta Secretase enzyme (BACE) (Homo sapiens, UniProt P56817); test: In vitro enzymatic BACE FRET assay; assay type: biochemical; settings: average IC50, in vitro enzymatic BACE FRET assay; read-out: BACE1 FRET assay IC50
# Chain of Beta Secretase enzyme (BACE) (P56817 46-501): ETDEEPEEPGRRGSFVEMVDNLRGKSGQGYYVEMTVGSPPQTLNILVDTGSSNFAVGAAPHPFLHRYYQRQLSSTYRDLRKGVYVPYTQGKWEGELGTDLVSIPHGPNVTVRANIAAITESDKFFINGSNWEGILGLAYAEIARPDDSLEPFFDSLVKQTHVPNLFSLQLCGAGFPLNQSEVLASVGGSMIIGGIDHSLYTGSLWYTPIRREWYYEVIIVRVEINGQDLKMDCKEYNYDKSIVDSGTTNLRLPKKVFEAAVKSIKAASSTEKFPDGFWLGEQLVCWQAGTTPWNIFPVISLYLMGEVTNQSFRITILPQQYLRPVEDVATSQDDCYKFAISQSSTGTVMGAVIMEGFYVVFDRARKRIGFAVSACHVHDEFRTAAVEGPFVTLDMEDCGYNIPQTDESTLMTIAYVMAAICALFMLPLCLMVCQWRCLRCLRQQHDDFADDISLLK
# Summary of the method: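 Enzyme (0.2 nM) pre-incubated 1 h with serially diluted inhibitors in 0.05 M acetate pH 4.2, 10% DMSO, 100 uM genapol. Reaction started with 50 nM fluorophore/quencher peptide FRET substrate, run 1 h, stopped with Tris to neutral pH. Fluorescence read at excitation 488 nm, […].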
# [3] = tested on: Aβ 40 in conditioned medium of cells stably expressing Amyloid Precursor Protein (APP); test: In vitro BACE cell-based assay (Aβ 40 sandwich ELISA); settings: Homo sapiens, HEK293; average IC50, HEK cell assay, Aβ 40 readout
# Summary of the method: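 APP-expressing cells, 24 h pre-culture in DMEM/10% FBS, treated 24 h with 10-point compound dilutions from 100 or 10 μM top, 0.1% DMSO final. Secreted Aβ40 quantified by sandwich ELISA (pAb40 capture, biotinylated 6E10 detection, europium TRF); IC50 from percent inhibition versus concentration.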
# Chain of Cathepsin D (Cat D) (P07339 65-412, species assumed): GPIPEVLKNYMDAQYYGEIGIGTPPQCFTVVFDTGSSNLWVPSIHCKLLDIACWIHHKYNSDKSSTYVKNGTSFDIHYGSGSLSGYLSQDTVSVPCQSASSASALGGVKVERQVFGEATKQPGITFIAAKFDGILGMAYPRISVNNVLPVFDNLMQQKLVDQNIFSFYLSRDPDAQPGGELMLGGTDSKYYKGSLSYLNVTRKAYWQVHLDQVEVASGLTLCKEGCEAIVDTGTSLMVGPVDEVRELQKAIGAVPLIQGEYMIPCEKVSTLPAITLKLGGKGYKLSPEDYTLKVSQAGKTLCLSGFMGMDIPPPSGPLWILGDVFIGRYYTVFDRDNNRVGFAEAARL
Compound,IC50 [1] [µM],IC50 [2] [nM],IC50 [3] [nM]
"Cc1cc(Cl)cnc1C(=O)Nc1ccc2c(c1)[C@@]1(C)N=C(N)C(C)(C)S(=O)(=O)[C@@H]1CCS2(=O)=O [Example 124, N-((4aR,11bR)-2-amino-3,3,11b-trimethyl-4,4,7,7-tetraoxido-4a,5,6,11b-tetrahydro-3H-benzo[6,7]thiepino[4,5-b][1,4]thiazin-10-yl)-5-chloro-3-methylpicolinamide]",> 1.65,6,8
"CC1(C)C(N)=N[C@]2(C)c3cc(NC(=O)c4ccc(OCC#N)cn4)ccc3OCC[C@H]2S1(=O)=O [Example 126, N-((4aR,11bR)-2-amino-3,3,11b-trimethyl-4,4-dioxido-4a,5,6,11b-tetrahydro-3H-[1]benzoxepino[4,5-b][1,4]thiazin-10-yl)-5-(cyanomethoxy)-2-pyridinecarboxamide]",> 1.65,17,34
"C[C@H]1C[C@@H]2[C@](C)(N=C(N)C(C)(C)S2(=O)=O)c2cc(NC(=O)c3ncc(Cl)cc3CO)ccc2O1 [Example 130, N-((4aR,6S,11bR)-2-amino-3,3,6,11b-tetramethyl-4,4-dioxido-4a,5,6,11b-tetrahydro-3H-benzo[6,7]oxepino[4,5-b][1,4]thiazin-10-yl)-5-chloro-3-(hydroxymethyl)picolinamide]",44.8,3,0.8
"C[C@H]1C[C@@H]2[C@](C)(N=C(N)C(C)(C)S2(=O)=O)c2cc(Nc3nccc4cc(C(F)(F)F)cnc34)ccc2O1 [Example 131, (4aR,6S,11bR)-2-amino-3,3,6,11b-tetramethyl-10-((3-(trifluoromethyl)-1,7-naphthyridin-8-yl)amino)-4a,5,6,11b-tetrahydro-3H-benzo[6,7]oxepino[4,5-b][1,4]thiazine 4,4-dioxide]",443,5,5
"Cc1cnc(COc2cnc3c(Nc4ccc5c(c4)[C@@]4(C)N=C(N)C(C)(C)S(=O)(=O)[C@@H]4C[C@H](C)O5)nccc3n2)o1 [Example 134, (4aR,6S,11bR)-3,3,6,11b-tetramethyl-N^~10^~-(2-((5-methyl-1,3-oxazol-2-yl)methoxy)pyrido[3,4-b]pyrazin-5-yl)-4a,5,6,11b-tetrahydro-3H-[1]benzoxepino[4,5-b][1,4]thiazine-2,10-diamine 4,4-dioxide]",> 44.4,3,3
"C[C@H]1C[C@@H]2[C@](C)(N=C(N)C(C)(C)S2(=O)=O)c2cc(Nc3nccc4nc(O)cnc34)ccc2O1 [Example 136, 5-(((4aR,6S,11bR)-2-amino-3,3,6,11b-tetramethyl-4,4-dioxido-4a,5,6,11b-tetrahydro-3H-[1]benzoxepino[4,5-b][1,4]thiazin-10-yl)amino)pyrido[3,4-b]pyrazin-2(1H)-one]",247,25,16
"COCCOc1cnc2c(Nc3ccc4c(c3)[C@@]3(C)N=C(N)C(C)(C)S(=O)(=O)[C@@H]3C[C@H](C)O4)nccc2n1 [Example 139, (4aR,6S,11bR)-N^~10^~-(2-(2-methoxyethoxy)pyrido[3,4-b]pyrazin-5-yl)-3,3,6,11b-tetramethyl-4a,5,6,11b-tetrahydro-3H-[1]benzoxepino[4,5-b][1,4]thiazine-2,10-diamine 4,4-dioxide]",304,7,8
"C#CCOc1cnc2c(Nc3ccc4c(c3)[C@@]3(C)N=C(N)C(C)(C)S(=O)(=O)[C@@H]3CC(C)(C)O4)nccc2n1 [Example 141, (4aR,11bR)-3,3,6,6,11b-pentamethyl-N^~10^~-(2-(2-propyn-1-yloxy)pyrido[3,4-b]pyrazin-5-yl)-4a,5,6,11b-tetrahydro-3H-[1]benzoxepino[4,5-b][1,4]thiazine-2,10-diamine 4,4-dioxide]",385,4,17
"C#CCOc1cnc(C(=O)Nc2ccc3c(c2)[C@@]2(C)N=C(N)C(C)(C)S(=O)(=O)[C@@H]2CC(C)(C)O3)cn1 [Example 143, N-((4aR,11bR)-2-Amino-3,3,6,6,11b-pentamethyl-4,4-dioxido-4a,5,6,11b-tetrahydro-3H-benzo[6,7]oxepino[4,5-b][1,4]thiazin-10-yl)-5-(prop-2-yn-1-yloxy)pyrazine-2-carboxamide]",202,2,0.5
"C#CCOc1ccc(C(=O)Nc2ccc3c(c2)[C@@]2(C)N=C(N)C(C)(C)S(=O)(=O)[C@@H]2C[C@H](C)O3)nc1 [Example 145, N-((4aR,6S,11bR)-2-amino-3,3,6,11b-tetramethyl-4,4-dioxido-4a,5,6,11b-tetrahydro-3H-[1]benzoxepino[4,5-b][1,4]thiazin-10-yl)-5-(2-propyn-1-yloxy)-2-pyridinecarboxamide]",329,1,2

# Next, values leading:
IC50 [1] [µM],IC50 [2] [nM],IC50 [3] [nM],Compound
995,184,210,"CC1(C)C(N)=N[C@]2(CF)c3cc(NC(=O)c4cnc(C(F)(F)F)cn4)ccc3OCC[C@H]2S1(=O)=O [Example 121, N-((4aR,11bS)-2-amino-11b-(fluoromethyl)-3,3-dimethyl-4,4-dioxido-4a,5,6,11b-tetrahydro-3H-[1]benzoxepino[4,5-b][1,4]thiazin-10-yl)-5-(trifluoromethyl)-2-pyrazinecarboxamide]"
1030,11,13,"CC1(C)C(N)=N[C@]2(CF)c3cc(NC(=O)c4ccc(OC(F)F)cn4)ccc3OCC[C@@H]2S1(=O)=O [Example 122, N-((4aS,11bS)-2-amino-11b-(fluoromethyl)-3,3-dimethyl-4,4-dioxido-4a,5,6,11b-tetrahydro-3H-[1]benzoxepino[4,5-b][1,4]thiazin-10-yl)-5-(difluoromethoxy)-2-pyridinecarboxamide]"
4100,19,33,"CC1(C)C(N)=N[C@]2(CF)c3cc(NC(=O)c4ccc(OC(F)F)cn4)ccc3OCC[C@H]2S1(=O)=O [Example 123, N-((4aR,11bS)-2-amino-11b-(fluoromethyl)-3,3-dimethyl-4,4-dioxido-4a,5,6,11b-tetrahydro-3H-[1]benzoxepino[4,5-b][1,4]thiazin-10-yl)-5-(difluoromethoxy)-2-pyridinecarboxamide]"
593,8,3,"CC1(C)C[C@@H]2[C@](C)(N=C(N)C(C)(C)S2(=O)=O)c2cc(NC(=O)c3ncc(Cl)cc3Cl)ccc2O1 [Example 128, N-((4aR,11bR)-2-amino-3,3,6,6,11b-pentamethyl-4,4-dioxido-4a,5,6,11b-tetrahydro-3H-[1]benzoxepino[4,5-b][1,4]thiazin-10-yl)-3,5-dichloro-2-pyridinecarboxamide]"
357,2,0.8,"Cc1cc(C(F)(F)F)cnc1C(=O)Nc1ccc2c(c1)[C@@]1(C)N=C(N)C(C)(C)S(=O)(=O)[C@@H]1CCS2 [Example 132, N-((4aR,11bR)-2-amino-3,3,11b-trimethyl-4,4-dioxido-4a,5,6,11b-tetrahydro-3H-[1]benzothiepino[4,5-b][1,4]thiazin-10-yl)-3-methyl-5-(trifluoromethyl)-2-pyridinecarboxamide]"
104,26,139,"CCCOc1cnc2c(Nc3ccc4c(c3)[C@@]3(C)N=C(N)C(C)(C)S(=O)(=O)[C@@H]3C[C@H](C)O4)nccc2n1 [Example 135, (4aR,6S,11bR)-3,3,6,11b-tetramethyl-N^~10^~-(2-propoxypyrido[3,4-b]pyrazin-5-yl)-4a,5,6,11b-tetrahydro-3H-[1]benzoxepino[4,5-b][1,4]thiazine-2,10-diamine 4,4-dioxide]"
> 133,18,91,"Cc1cc(COc2cnc3c(Nc4ccc5c(c4)[C@@]4(C)N=C(N)C(C)(C)S(=O)(=O)[C@@H]4C[C@H](C)O5)nccc3n2)on1 [Example 137, (4aR,6S,11bR)-3,3,6,11b-tetramethyl-N^~10^~-(2-((3-methyl-5-isoxazolyl)methoxy)pyrido[3,4-b]pyrazin-5-yl)-4a,5,6,11b-tetrahydro-3H-[1]benzoxepino[4,5-b][1,4]thiazine-2,10-diamine 4,4-dioxide]"
215,1,0.5,"C#CCOc1cnc(C(=O)Nc2ccc3c(c2)[C@@]2(C)N=C(N)C(C)(C)S(=O)(=O)[C@@H]2C[C@H](C)O3)cn1 [Example 142, N-((4aR,6S,11bR)-2-amino-3,3,6,11b-tetramethyl-4,4-dioxido-4a,5,6,11b-tetrahydro-3H-[1]benzoxepino[4,5-b][1,4]thiazin-10-yl)-5-(2-propyn-1-yloxy)-2-pyrazinecarboxamide]"
564,4,3,"C[C@H]1C[C@@H]2[C@](C)(N=C(N)C(C)(C)S2(=O)=O)c2cc(NC(=O)c3ccc(OCc4ncco4)cn3)ccc2O1 [Example 144, N-((4aR,6S,11bR)-2-amino-3,3,6,11b-tetramethyl-4,4-dioxido-4a,5,6,11b-tetrahydro-3H-[1]benzoxepino[4,5-b][1,4]thiazin-10-yl)-5-(1,3-oxazol-2-ylmethoxy)-2-pyridinecarboxamide]"
